Several values for one entry are separate records, joined by “and”; a condition that tells them apart may be missing. Equal entries are not always repeated. Inconclusive results and toxic doses are left out. The calls were made as follows: active = survival T/C of 150% or more; inactive = T/C below 125% in these data.
Test system: CD2F1 mice, L1210 leukemia ip, survival T/C
Assay: NCI In Vivo Anticancer Drug Screen. Data for tumor model L1210 Leukemia (intraperitoneal) in CD2F1 (CDF1) mice
Settings: higher = longer survival
Outline: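 Mice carrying a transplanted tumor received test compound or vehicle alone. The value is the measurement in the treated group divided by that in the vehicle-treated control group.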

[1] = endpoint: mean survival time, dose: 100.0 mg/kg/injection, schedule: Q04DX003 (ip), vehicle: saline
[2] = endpoint: mean survival time, dose: 200.0 mg/kg/injection, schedule: Q04DX003 (ip), vehicle: saline
[3] = endpoint: mean survival time, dose: 400.0 mg/kg/injection, schedule: Q04DX003 (ip), vehicle: saline
[4] = endpoint: mean survival time, dose: 100.0 mg/kg/injection, schedule: Q04DX003 (ip), vehicle: saline with Tween-80
[5] = endpoint: mean survival time, dose: 200.0 mg/kg/injection, schedule: Q04DX003 (ip), vehicle: saline with Tween-80
[6] = endpoint: mean survival time, dose: 400.0 mg/kg/injection, schedule: Q04DX003 (ip), vehicle: saline with Tween-80
[7] = endpoint: mean survival time, dose: 100.0 mg/kg/injection, schedule: Q01DX001 (ip), vehicle: saline with Tween-80
[8] = endpoint: mean survival time, dose: 200.0 mg/kg/injection, schedule: Q01DX001 (ip), vehicle: saline with Tween-80
[9] = endpoint: mean survival time, dose: 400.0 mg/kg/injection, schedule: Q01DX001 (ip), vehicle: saline with Tween-80
[10] = endpoint: mean survival time, dose: 12.5 mg/kg/injection, schedule: Q01DX009 (ip), vehicle: saline with Tween-80
[11] = endpoint: mean survival time, dose: 200.0 mg/kg/injection, schedule: Q01DX009 (ip), vehicle: saline with Tween-80

Measured: T/C

CC(C)C(=O)OCCOC(=O)C(C)C
inactive: [1] 100 % of control | [2] 97 % of control | [3] 96 % of control

O=c1[nH]c2ccccc2[nH]1
inactive: [4] 100 % of control | [5] 95 % of control | [6] 103 % of control

O=C(O)C(O)c1ccccc1 (centres undefined)
inactive: endpoint: mean survival time, dose: 100.0 mg/kg/injection, schedule: Q04DX002 (ip), vehicle: saline 101 % of control | endpoint: mean survival time, dose: 200.0 mg/kg/injection, schedule: Q04DX002 (ip), vehicle: saline 114 % of control

O=P(OCc1ccccc1)(N(CCCl)CCCl)N1CCN(P(=O)(OCc2ccccc2)N(CCCl)CCCl)CC1 (centres undefined)
inactive: endpoint: mean survival time, dose: 128.0 mg/kg/injection, schedule: Q01DX Z (ip), vehicle: saline 104 % of control | endpoint: mean survival time, dose: 256.0 mg/kg/injection, schedule: Q01DX Z (ip), vehicle: saline 107 % of control | endpoint: mean survival time, dose: 512.0 mg/kg/injection, schedule: Q01DX Z (ip), vehicle: saline 113 % of control

COc1ccccc1NC(=O)N(CCCl)N=O
active: endpoint: mean survival time, dose: 3.5 mg/kg/injection, schedule: Q01DX009 (ip), vehicle: carboxymethylcellulose (CMC) 168 % of control
inactive: endpoint: mean survival time, dose: 1.5 mg/kg/injection, schedule: Q01DX009 (ip), vehicle: carboxymethylcellulose (CMC) 115 % of control

ClC1(Cl)Cc2ccccc21
inactive: endpoint: mean survival time, dose: 266.0 mg/kg/injection, schedule: Q04DX003 (ip), vehicle: saline sonified 96 % of control | endpoint: mean survival time, dose: 400.0 mg/kg/injection, schedule: Q04DX003 (ip), vehicle: saline sonified 88 % of control | endpoint: mean survival time, dose: 600.0 mg/kg/injection, schedule: Q04DX003 (ip), vehicle: saline sonified 100 % of control | endpoint: median survival time, dose: 50.0 mg/kg/injection, schedule: Q01DX005 (ip), vehicle: saline with Tween-80 102 % of control | endpoint: median survival time, dose: 100.0 mg/kg/injection, schedule: Q01DX005 (ip), vehicle: saline with Tween-80 113 % of control | endpoint: median survival time, dose: 200.0 mg/kg/injection, schedule: Q01DX005 (ip), vehicle: saline with Tween-80 102 % of control

COc1cc2c(cc1OC)C(c1cc(OC)c(OC)c(OC)c1)=NCC2
inactive: endpoint: mean survival time, dose: 100.0 mg/kg/injection, schedule: Q04DX002 (ip), vehicle: saline with Tween-80 104 % of control | endpoint: mean survival time, dose: 200.0 mg/kg/injection, schedule: Q04DX002 (ip), vehicle: saline with Tween-80 104 % of control | [5] 87 % of control | endpoint: mean survival time, dose: 400.0 mg/kg/injection, schedule: Q04DX002 (ip), vehicle: saline with Tween-80 100 % of control | [6] 87 % of control

O=c1[nH]c2c([N+](=O)[O-])cc(Br)cc2c2ccccc12
inactive: endpoint: mean survival time, dose: 100.0 mg/kg/injection, schedule: Q01DX001 (ip), vehicle: carboxymethylcellulose (CMC) 100 % of control | endpoint: mean survival time, dose: 200.0 mg/kg/injection, schedule: Q01DX001 (ip), vehicle: carboxymethylcellulose (CMC) 94 % of control | endpoint: mean survival time, dose: 400.0 mg/kg/injection, schedule: Q01DX001 (ip), vehicle: carboxymethylcellulose (CMC) 100 % of control

CCC1([N+](=O)[O-])COC(c2ccc(Cl)cc2)OC1 (centres undefined)
inactive: endpoint: mean survival time, dose: 100.0 mg/kg/injection, schedule: Q01DX001 (ip), vehicle: Klucel (hydroxypropylcellulose) (HPC) 104 % of control | endpoint: mean survival time, dose: 200.0 mg/kg/injection, schedule: Q01DX001 (ip), vehicle: Klucel (hydroxypropylcellulose) (HPC) 86 % of control | endpoint: mean survival time, dose: 400.0 mg/kg/injection, schedule: Q01DX001 (ip), vehicle: Klucel (hydroxypropylcellulose) (HPC) 111 % of control

CC1CCC(NC(=O)NCCCl)CC1 (centres undefined)
inactive: [7] 98 % of control | [8] 109 % of control | [9] 101 % of control

O=c1cc(O)cn[nH]1
inactive: endpoint: mean survival time, dose: 25.0 mg/kg/injection, schedule: Q01DX009 (ip), vehicle: other 97 % of control | endpoint: mean survival time, dose: 50.0 mg/kg/injection, schedule: Q01DX009 (ip), vehicle: other 97 % of control | endpoint: mean survival time, dose: 100.0 mg/kg/injection, schedule: Q01DX009 (ip), vehicle: other 104 % of control | endpoint: mean survival time, dose: 200.0 mg/kg/injection, schedule: Q01DX009 (ip), vehicle: other 102 % of control | endpoint: mean survival time, dose: 400.0 mg/kg/injection, schedule: Q01DX009 (ip), vehicle: other 102 % of control

O=C(CBr)Nc1cc([N+](=O)[O-])ccc1O
inactive: endpoint: mean survival time, dose: 6.25 mg/kg/injection, schedule: Q01DX009 (ip), vehicle: saline with Tween-80 91 % of control | [10] 98 % of control

CC([NH-])C[NH-].[Cl][Pt+2][Cl] (centres undefined)
inactive: endpoint: mean survival time, dose: 0.31 mg/kg/injection, schedule: Q01DX009 (ip), vehicle: saline with Tween-80 105 % of control | endpoint: mean survival time, dose: 0.62 mg/kg/injection, schedule: Q01DX009 (ip), vehicle: saline with Tween-80 107 % of control | endpoint: mean survival time, dose: 1.25 mg/kg/injection, schedule: Q01DX009 (ip), vehicle: saline with Tween-80 112 % of control | endpoint: mean survival time, dose: 2.5 mg/kg/injection, schedule: Q01DX009 (ip), vehicle: saline with Tween-80 105 % of control | endpoint: mean survival time, dose: 2.5 mg/kg/injection, schedule: Q04DX003 (ip), vehicle: saline with Tween-80 115 % of control | endpoint: mean survival time, dose: 5.0 mg/kg/injection, schedule: Q01DX009 (ip), vehicle: saline with Tween-80 86 % of control | endpoint: mean survival time, dose: 5.0 mg/kg/injection, schedule: Q04DX003 (ip), vehicle: saline with Tween-80 115 % of control

ON(C(=Nc1ccc(Cl)cc1)c1ccccc1)c1ccccc1
inactive: endpoint: mean survival time, dose: 100.0 mg/kg/injection, schedule: Q01DX001 (ip), vehicle: saline 105 % of control | [1] 100 % of control | endpoint: mean survival time, dose: 200.0 mg/kg/injection, schedule: Q01DX001 (ip), vehicle: saline 97 % of control | [2] 102 % of control | endpoint: mean survival time, dose: 400.0 mg/kg/injection, schedule: Q01DX001 (ip), vehicle: saline 100 % of control | [3] 100 % of control

CC(O)(P(=O)(O)O)P(=O)(O)O.[NH-]CC[NH-].[NH-]CC[NH-].[Pd+2].[Pd+2]
inactive: endpoint: mean survival time, dose: 3.13 mg/kg/injection, schedule: Q04DX003 (ip), vehicle: water 106 % of control | endpoint: mean survival time, dose: 6.25 mg/kg/injection, schedule: Q04DX003 (ip), vehicle: water 103 % of control | endpoint: mean survival time, dose: 12.5 mg/kg/injection, schedule: Q04DX003 (ip), vehicle: water 87 % of control | endpoint: mean survival time, dose: 25.0 mg/kg/injection, schedule: Q04DX003 (ip), vehicle: water 103 % of control | endpoint: mean survival time, dose: 50.0 mg/kg/injection, schedule: Q04DX003 (ip), vehicle: water 93 % of control | endpoint: mean survival time, dose: 100.0 mg/kg/injection, schedule: Q04DX003 (ip), vehicle: water 102 % of control

O=S=NNc1ccccc1
inactive: [10] 108 % of control | endpoint: mean survival time, dose: 25.0 mg/kg/injection, schedule: Q01DX009 (ip), vehicle: saline with Tween-80 102 % of control | endpoint: mean survival time, dose: 50.0 mg/kg/injection, schedule: Q01DX009 (ip), vehicle: saline with Tween-80 88 % of control and 90 % of control | [4] 95 % of control | [5] 89 % of control

O=S(=O)(O)C1=CC(=N\Cl)/C=CC/1=N/Cl
inactive: endpoint: median survival time, dose: 50.0 mg/kg/injection, schedule: Q01DX009 (ip), vehicle: saline with Tween-80 110 % of control | endpoint: median survival time, dose: 100.0 mg/kg/injection, schedule: Q01DX009 (ip), vehicle: saline with Tween-80 119 % of control | endpoint: median survival time, dose: 200.0 mg/kg/injection, schedule: Q01DX009 (ip), vehicle: saline with Tween-80 108 % of control | endpoint: median survival time, dose: 400.0 mg/kg/injection, schedule: Q01DX009 (ip), vehicle: saline with Tween-80 120 % of control

CN=NC(C)C
inactive: [11] 113 % of control

CN1CCN(CC(=O)N2c3ccccc3Sc3cc4ccccc4cc32)CC1
inactive: endpoint: mean survival time, dose: 75.0 mg/kg/injection, schedule: Q01DX001 (ip), vehicle: saline 101 % of control | endpoint: mean survival time, dose: 150.0 mg/kg/injection, schedule: Q01DX001 (ip), vehicle: saline 108 % of control | endpoint: mean survival time, dose: 300.0 mg/kg/injection, schedule: Q01DX001 (ip), vehicle: saline 96 % of control

C=C1C(O)C2(O)OCC34C(CC5C(C)=CC(=O)C(O)C5(C)C23)OC(=O)C(OC(=O)C/C=C/CCCCCCCC)C14 (centres undefined)
inactive: endpoint: median survival time, dose: 2.0 mg/kg/injection, schedule: Q01DX005 (ip), vehicle: saline + alcohol 113 % of control | endpoint: median survival time, dose: 4.0 mg/kg/injection, schedule: Q01DX005 (ip), vehicle: saline + alcohol 119 % of control | endpoint: median survival time, dose: 8.0 mg/kg/injection, schedule: Q01DX005 (ip), vehicle: saline + alcohol 119 % of control and 124 % of control

O=C(c1ccccc1)C(c1ccccc1)C(SCc1ccccc1)c1ccccc1 (centres undefined)
inactive: [7] 88 % of control | endpoint: mean survival time, dose: 100.0 mg/kg/injection, schedule: Q01DX009 (ip), vehicle: saline with Tween-80 94 % of control | [8] 90 % of control | [11] 100 % of control | [9] 98 % of control | endpoint: mean survival time, dose: 400.0 mg/kg/injection, schedule: Q01DX009 (ip), vehicle: saline with Tween-80 103 % of control

ClC=C(c1ccc(Cl)cc1)c1ccc(Cl)cc1
inactive: [4] 97 % of control | [5] 97 % of control | [6] 101 % of control
